Source: ChEMBL document CHEMBL4043168, “The design and SAR of a novel series of 2-aminopyridine based LRRK2 inhibitors” (Bioorg Med Chem Lett, 2017)

Columns and labels:
[1] = biological target: Cyclin-dependent kinase 11B (Homo sapiens) (UniProt P21127); test: Inhibition of CDK11 labeling at conserved Lys2 (DLKPANILVMGEGPER) in human PBMC at 1 uM
[2] = biological target: Mitogen-activated protein kinase kinase kinase kinase 5 (Homo sapiens) (UniProt Q9Y4K4); test: Inhibition of KHS1 conserved Lys1 (NVHTGELAAVKIIK) in human PBMC at 1 uM
Mitogen-activated protein kinase kinase kinase kinase 5 (Homo sapiens), sequence (Q9Y4K4 whole entry, looked up): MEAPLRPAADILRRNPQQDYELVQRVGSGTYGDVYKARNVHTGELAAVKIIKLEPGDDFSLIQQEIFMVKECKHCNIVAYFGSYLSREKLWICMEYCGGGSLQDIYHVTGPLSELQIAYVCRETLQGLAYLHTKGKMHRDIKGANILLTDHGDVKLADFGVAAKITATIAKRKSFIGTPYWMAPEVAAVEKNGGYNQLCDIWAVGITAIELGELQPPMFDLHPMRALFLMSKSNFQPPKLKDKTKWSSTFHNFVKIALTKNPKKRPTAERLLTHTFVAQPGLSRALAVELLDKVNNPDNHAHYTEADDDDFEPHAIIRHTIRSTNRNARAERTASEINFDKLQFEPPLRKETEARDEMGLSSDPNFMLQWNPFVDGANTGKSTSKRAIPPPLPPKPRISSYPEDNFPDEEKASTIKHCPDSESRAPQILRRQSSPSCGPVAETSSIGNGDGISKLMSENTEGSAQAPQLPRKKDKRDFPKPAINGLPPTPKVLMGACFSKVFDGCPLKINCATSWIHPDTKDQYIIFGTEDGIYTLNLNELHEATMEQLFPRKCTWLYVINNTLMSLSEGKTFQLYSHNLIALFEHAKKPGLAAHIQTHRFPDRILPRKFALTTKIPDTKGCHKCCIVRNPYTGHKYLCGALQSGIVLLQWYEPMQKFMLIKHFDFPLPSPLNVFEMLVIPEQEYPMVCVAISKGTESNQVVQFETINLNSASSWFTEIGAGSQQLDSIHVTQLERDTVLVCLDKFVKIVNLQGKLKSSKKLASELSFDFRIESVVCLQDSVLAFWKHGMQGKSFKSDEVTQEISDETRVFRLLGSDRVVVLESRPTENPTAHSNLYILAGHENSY

[3] = biological target: T1, Serine/threonine-protein kinase 3 (Homo sapiens) (UniProt Q13188); test: Inhibition of MST2 conserved Lys1 (ESGQVVAIKQVPVESDLQEIIK) in human PBMC at 1 uM
T1 sequence (whole entry): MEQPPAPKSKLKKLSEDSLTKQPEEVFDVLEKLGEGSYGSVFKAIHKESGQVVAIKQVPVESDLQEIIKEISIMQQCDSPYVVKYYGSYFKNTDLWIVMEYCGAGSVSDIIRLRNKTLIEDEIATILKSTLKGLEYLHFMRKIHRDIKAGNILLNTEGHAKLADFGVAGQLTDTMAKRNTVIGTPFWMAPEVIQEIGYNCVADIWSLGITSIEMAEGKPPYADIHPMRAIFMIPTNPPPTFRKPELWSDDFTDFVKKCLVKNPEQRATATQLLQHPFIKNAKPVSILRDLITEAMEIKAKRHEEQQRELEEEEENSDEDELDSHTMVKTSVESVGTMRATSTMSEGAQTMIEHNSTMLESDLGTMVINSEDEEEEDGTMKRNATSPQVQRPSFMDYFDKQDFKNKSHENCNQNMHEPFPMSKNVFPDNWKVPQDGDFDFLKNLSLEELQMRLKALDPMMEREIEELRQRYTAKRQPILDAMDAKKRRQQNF

[4] = biological target: Serine/threonine-protein kinase PLK1 (Homo sapiens) (UniProt P53350); test: Inhibition of PLK1 conserved Lys1 (CFEISDADTKEVFAGKIVPK) in human PBMC at 1 uM
Serine/threonine-protein kinase PLK1 (Homo sapiens), sequence (P53350 whole entry): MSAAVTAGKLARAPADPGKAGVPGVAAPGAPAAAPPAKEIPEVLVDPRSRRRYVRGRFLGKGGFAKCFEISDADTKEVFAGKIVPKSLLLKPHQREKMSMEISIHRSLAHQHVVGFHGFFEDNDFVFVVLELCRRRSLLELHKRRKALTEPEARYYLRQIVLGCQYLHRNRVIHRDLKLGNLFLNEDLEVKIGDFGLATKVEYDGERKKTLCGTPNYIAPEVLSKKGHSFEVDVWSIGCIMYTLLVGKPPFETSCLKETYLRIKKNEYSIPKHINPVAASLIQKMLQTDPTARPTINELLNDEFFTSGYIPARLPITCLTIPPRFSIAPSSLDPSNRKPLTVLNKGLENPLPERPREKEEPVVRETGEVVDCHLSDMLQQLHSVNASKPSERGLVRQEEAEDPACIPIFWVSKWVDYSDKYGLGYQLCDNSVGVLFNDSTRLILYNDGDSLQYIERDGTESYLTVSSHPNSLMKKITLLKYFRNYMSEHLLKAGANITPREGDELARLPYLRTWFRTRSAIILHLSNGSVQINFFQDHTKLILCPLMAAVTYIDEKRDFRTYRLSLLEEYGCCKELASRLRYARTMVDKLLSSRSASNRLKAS

[5] = biological target: Serine/threonine-protein kinase SIK3 (Homo sapiens) (UniProt Q9Y2K2); test: Inhibition of QSK conserved Lys1 (VAIKIIDKTQLDEENLKK) in human PBMC at 1 uM
Serine/threonine-protein kinase SIK3 (Homo sapiens), sequence (Q9Y2K2 whole entry, looked up): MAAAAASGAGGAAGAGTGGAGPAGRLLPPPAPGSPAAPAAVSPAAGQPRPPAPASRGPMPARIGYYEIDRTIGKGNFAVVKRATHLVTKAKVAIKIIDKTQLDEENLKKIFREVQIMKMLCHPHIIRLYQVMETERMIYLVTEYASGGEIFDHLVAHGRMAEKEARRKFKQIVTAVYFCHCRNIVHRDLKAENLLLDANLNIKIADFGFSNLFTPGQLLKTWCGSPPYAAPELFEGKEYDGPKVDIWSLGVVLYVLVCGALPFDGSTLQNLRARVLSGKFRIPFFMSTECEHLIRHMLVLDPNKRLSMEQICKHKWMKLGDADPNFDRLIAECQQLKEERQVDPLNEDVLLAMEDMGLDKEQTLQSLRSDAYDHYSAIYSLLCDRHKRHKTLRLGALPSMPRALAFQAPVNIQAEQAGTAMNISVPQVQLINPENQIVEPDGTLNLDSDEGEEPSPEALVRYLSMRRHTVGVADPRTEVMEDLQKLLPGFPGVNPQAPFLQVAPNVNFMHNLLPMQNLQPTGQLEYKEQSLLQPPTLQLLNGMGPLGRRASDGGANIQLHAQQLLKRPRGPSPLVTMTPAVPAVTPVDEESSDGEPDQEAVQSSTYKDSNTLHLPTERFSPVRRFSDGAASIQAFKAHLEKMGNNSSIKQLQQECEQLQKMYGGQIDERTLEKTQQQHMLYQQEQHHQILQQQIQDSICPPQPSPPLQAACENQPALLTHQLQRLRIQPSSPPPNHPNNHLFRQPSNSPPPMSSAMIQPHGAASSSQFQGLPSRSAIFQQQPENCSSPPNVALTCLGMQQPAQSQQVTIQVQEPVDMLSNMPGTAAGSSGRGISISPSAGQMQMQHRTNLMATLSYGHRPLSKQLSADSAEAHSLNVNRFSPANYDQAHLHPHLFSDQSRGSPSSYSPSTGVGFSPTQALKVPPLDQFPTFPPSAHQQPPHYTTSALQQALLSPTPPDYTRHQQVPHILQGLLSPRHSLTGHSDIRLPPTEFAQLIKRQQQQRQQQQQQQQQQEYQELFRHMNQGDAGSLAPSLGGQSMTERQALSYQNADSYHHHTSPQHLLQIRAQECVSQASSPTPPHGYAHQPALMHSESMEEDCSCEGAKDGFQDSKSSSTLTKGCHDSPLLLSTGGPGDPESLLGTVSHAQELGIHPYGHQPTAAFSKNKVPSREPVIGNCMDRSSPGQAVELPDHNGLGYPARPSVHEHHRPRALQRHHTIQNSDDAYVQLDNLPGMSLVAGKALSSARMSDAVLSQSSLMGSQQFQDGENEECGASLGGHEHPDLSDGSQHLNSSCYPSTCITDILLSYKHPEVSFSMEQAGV

[6] = biological target: Serine/threonine-protein kinase 32C (Homo sapiens) (UniProt Q86UX6); test: Inhibition of YANK3 conserved Lys2 (DVKPDNILLDER) in human PBMC at 1 uM
Serine/threonine-protein kinase 32C (Homo sapiens), sequence (Q86UX6 whole entry): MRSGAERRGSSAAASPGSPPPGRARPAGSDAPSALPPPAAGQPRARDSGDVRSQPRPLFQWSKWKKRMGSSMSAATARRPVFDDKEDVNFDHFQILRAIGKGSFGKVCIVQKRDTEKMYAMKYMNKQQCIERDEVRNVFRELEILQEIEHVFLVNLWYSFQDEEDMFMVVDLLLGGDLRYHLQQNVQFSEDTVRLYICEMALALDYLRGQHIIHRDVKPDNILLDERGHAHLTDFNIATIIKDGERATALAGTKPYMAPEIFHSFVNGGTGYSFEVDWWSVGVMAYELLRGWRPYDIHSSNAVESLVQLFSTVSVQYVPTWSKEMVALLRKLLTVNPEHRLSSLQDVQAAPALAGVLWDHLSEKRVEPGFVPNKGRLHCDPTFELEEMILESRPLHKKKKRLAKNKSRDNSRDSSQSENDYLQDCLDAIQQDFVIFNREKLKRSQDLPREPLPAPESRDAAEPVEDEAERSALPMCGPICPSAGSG

[7] = biological target: T2, Mitogen-activated protein kinase kinase kinase 5 (Homo sapiens) (UniProt Q99683); test: Inhibition of MAP3K5 conserved Lys1 (IAIKEIPER) in human PBMC at 0.1 uM
T2 sequence (whole entry): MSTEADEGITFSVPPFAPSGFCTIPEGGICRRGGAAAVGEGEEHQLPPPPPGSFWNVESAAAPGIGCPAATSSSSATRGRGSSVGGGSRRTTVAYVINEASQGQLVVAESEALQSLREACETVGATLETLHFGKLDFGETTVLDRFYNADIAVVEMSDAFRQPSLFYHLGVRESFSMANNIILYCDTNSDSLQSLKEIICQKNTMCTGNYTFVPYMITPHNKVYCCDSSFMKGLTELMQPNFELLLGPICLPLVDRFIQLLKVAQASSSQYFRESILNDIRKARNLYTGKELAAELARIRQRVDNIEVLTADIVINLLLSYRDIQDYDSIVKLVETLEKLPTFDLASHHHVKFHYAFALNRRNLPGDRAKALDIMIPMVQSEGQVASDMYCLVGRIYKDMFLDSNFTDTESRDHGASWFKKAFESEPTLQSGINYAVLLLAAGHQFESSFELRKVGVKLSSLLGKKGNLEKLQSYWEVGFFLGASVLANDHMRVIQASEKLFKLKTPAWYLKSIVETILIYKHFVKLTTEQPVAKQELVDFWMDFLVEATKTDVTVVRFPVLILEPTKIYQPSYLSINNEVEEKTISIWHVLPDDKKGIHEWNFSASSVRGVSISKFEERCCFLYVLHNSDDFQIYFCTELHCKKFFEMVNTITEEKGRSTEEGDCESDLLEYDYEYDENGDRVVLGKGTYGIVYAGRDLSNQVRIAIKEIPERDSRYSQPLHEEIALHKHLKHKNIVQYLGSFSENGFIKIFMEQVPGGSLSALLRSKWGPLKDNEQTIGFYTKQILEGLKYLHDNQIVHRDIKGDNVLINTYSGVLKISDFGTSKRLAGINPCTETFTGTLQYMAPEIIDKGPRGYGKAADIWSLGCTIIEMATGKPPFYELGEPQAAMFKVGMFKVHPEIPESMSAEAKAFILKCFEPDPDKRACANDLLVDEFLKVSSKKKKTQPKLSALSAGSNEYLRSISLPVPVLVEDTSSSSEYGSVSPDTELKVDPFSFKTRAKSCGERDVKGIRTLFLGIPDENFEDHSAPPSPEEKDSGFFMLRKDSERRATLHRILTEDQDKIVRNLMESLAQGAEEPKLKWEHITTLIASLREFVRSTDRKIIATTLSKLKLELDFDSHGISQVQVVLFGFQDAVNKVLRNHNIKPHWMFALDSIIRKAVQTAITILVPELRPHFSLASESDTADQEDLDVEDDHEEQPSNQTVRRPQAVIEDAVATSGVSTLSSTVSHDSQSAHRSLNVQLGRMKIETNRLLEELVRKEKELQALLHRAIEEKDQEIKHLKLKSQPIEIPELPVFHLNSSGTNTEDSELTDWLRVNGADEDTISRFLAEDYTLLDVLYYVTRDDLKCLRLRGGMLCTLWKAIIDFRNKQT

[8] = biological target: T2, Mitogen-activated protein kinase kinase kinase 5 (Homo sapiens); test: Inhibition of MAP3K5 conserved Lys2 (DIKGDNVLINTYSGVLK) in human PBMC at 0.1 uM
[9] = biological target: Myosin light chain kinase, smooth muscle (Homo sapiens) (UniProt Q15746); test: Inhibition of smMLCK conserved Lys2 (QGIVHLDLKPENIMCVNK) in human PBMC at 0.1 uM

Cyclin-dependent kinase 11B (Homo sapiens), sequence (P21127 whole entry): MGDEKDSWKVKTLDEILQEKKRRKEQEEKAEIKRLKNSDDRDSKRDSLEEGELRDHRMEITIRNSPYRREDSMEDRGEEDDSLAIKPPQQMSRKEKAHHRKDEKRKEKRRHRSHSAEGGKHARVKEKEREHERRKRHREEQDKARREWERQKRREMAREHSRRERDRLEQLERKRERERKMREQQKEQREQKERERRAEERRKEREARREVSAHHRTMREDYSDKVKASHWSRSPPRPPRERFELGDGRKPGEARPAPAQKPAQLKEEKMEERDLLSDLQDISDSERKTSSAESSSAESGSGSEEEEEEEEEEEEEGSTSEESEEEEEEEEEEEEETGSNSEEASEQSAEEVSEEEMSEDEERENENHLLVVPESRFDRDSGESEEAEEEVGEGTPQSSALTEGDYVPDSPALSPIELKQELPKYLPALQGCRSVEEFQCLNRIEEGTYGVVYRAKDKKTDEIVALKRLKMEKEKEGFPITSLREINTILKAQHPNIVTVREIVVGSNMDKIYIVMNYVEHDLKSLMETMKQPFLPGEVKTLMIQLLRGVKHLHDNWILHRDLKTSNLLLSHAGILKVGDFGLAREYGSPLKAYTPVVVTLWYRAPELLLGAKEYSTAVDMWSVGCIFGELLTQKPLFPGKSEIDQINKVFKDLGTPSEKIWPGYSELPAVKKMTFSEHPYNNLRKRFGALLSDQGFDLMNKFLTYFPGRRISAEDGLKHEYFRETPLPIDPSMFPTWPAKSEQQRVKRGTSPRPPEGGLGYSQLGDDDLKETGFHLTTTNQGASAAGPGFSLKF

Q: How did the inhibition [1] turn out when `CC(C)n1cc(-c2cc(-c3ccc(CN4CCOCC4)cc3)cnc2N)nn1` was run?
A: The inhibition was 1.5%.

Q: And the inhibition [2]?
A: Its inhibition is 3.8%.

Q: What about the inhibition [3] of the same molecule?
A: Its inhibition is -6%.

Q: What about the inhibition [4] of the same molecule?
A: The inhibition was 16%.

Q: And the inhibition [5]?
A: The inhibition was 4%.

Q: What about the inhibition [6] of the same molecule?
A: Its inhibition is -2.1%.

Q: What about the inhibition [7] of the same molecule?
A: The inhibition was -0.5%.

Q: And the inhibition [8]?
A: Its inhibition is 11%.

Q: And the inhibition [9]?
A: Its inhibition is 11.3%.
